Test: xn = mol fraction of the nth substance listed
Details: 101 kPa, Liquid

CCCCCCOC(C)=O [hexyl ethanoate] + C1COCCO1
Details	mass density [kg/m3]	speed of sound [m/s]	viscosity [mPa·s]
298.15 K, x1 = 0.0546	1015	1312	1.143
298.15 K, x1 = 0.1152	1000.7	1292	1.131
298.15 K, x1 = 0.1825	985.9	1280	1.119
298.15 K, x1 = 0.2572	970.6	1268	1.106
298.15 K, x1 = 0.3416	954.6	1256	1.096
298.15 K, x1 = 0.4094	942.8	1248	1.093
298.15 K, x1 = 0.4773	931.9	1240	1.088
298.15 K, x1 = 0.5836	916.5	1236	1.08
298.15 K, x1 = 0.7044	900.8	1236	1.077
298.15 K, x1 = 1	868.3	1236	1.071
303.15 K, x1 = 0.0546	1009	1300	1.076
303.15 K, x1 = 0.1152	994.8	1280	1.063
303.15 K, x1 = 0.1825	979.9	1268	1.049
303.15 K, x1 = 0.2572	964.6	1256	1.037
303.15 K, x1 = 0.3416	948.8	1244	1.026
303.15 K, x1 = 0.4094	937.1	1236	1.019
303.15 K, x1 = 0.4773	926.4	1228	1.014
303.15 K, x1 = 0.5836	911.1	1224	1.005
303.15 K, x1 = 0.7044	895.7	1224	0.997
303.15 K, x1 = 1	863.9	1216	0.982
308.15 K, x1 = 0.0546	1003.4	1288	0.987
308.15 K, x1 = 0.1152	988.9	1268	0.975
308.15 K, x1 = 0.1825	974	1256	0.962
308.15 K, x1 = 0.2572	958.8	1244	0.951
308.15 K, x1 = 0.3416	943.2	1232	0.942
308.15 K, x1 = 0.4094	931.7	1224	0.935
308.15 K, x1 = 0.4773	921.1	1216	0.93
308.15 K, x1 = 0.5836	906	1212	0.921
308.15 K, x1 = 0.7044	890.8	1212	0.913
308.15 K, x1 = 1	859.8	1196	0.898
313.15 K, x1 = 0.0546	996.8	1280	0.935
313.15 K, x1 = 0.1152	982.2	1256	0.924
313.15 K, x1 = 0.1825	967.3	1244	0.912
313.15 K, x1 = 0.2572	952.3	1232	0.9
313.15 K, x1 = 0.3416	937	1216	0.889
313.15 K, x1 = 0.4094	925.7	1208	0.88
313.15 K, x1 = 0.4773	915.2	1204	0.874
313.15 K, x1 = 0.5836	900.3	1200	0.864
313.15 K, x1 = 0.7044	885.2	1200	0.855
313.15 K, x1 = 1	855	1176	0.836
